We go through one molecule from patent US20190183896A1, “ONE STEP MILLING PROCESS FOR PREPARING MICRONIZED PALIPERIDONE ESTERS” (SpecGX LLC, priority 2017, published 2019).

The structures appear in SMILES notation.

The series is described as follows: Particle size measurement of milled suspension (MALVERN MASTERSIZER 3000, in deionized water). It counts as physicochemical. As to conditions: mean; suspension of Example 1 milled 20 minutes with 700 micron polystyrene grinding media (Example 2); measured in deionized water. Here is the method: The suspension from Example 1 (6-35 w/v %) was milled in a NETZSCH MINICER bead mill using 700 micron polystyrene grinding media (40-85% media load). The mixture was milled at a speed of 3.1-5.5 m/s at 15-25° C. for 20 minutes.
Following milling, particle size was measured, in deionized water, using a MALVERN MASTERSIZER 3000 particle size analyzer. The mean milled paliperidone palmitate particle size distribution of the suspension was D90 less than 20 micron, D50 less than 10 micron, and a D10 less than 3 micron (FIG. 1).

`CCCCCCCCCCCCCCCC(=O)OC1CCCn2c1nc(C)c(CCN1CCC(c3noc4cc(F)ccc34)CC1)c2=O` (stereo not drawn) [paliperidone palmitate, 3-(2-(4-(6-fluoro-3a,7a-dihydrobenzo[d]isoxazol-3-yl)piperidin-1-yl)ethyl)-2-methyl-4-oxo-6,7,8,9-tetrahydro-4H-pyrido[1,2-a]pyrimidin-9-yl palmitate]: the “particle size distribution D10” value is reported as “less than 3 micron”, the “particle size distribution D50” value was “less than 10 micron” and the “particle size distribution D90” value is listed as “less than 20 micron”.
